Tests used:
[1] = mn = molality of the nth substance listed, in mol/kg; details: 298.15 K, 101 kPa, Liquid; for speed of sound: Pulse-echo method
[2] = 298.15 K, 101.33 kPa, Liquid; for viscosity: Capillary tube (Ostwald / Ubbelohde) method
[3] = xn = mol fraction of the nth substance listed; details: 298.15 K, 101 kPa, Liquid; for viscosity: Capillary tube (Ostwald / Ubbelohde) method

CCCC[N+](CCCC)(CCCC)CCCC.O=[N+]([O-])[O-] [tetrabutylammonium nitrate] + CC#N
[1]
Details	mass density [kg/m3]	speed of sound [m/s]
m1 = 0.02174	781.56	1272.7
m1 = 0.04144	785.96	1273.7
m1 = 0.06482	791.21	1275.2
m1 = 0.08753	796.37	1276.6
m1 = 0.1139	802.45	1279.3

O=[N+]([O-])[O-].[Ag+] [silver nitrate] + CC#N
[1]
Details	mass density [kg/m3]	speed of sound [m/s]
m1 = 0.0283	785.04	1272
m1 = 0.04474	789.86	1273.5
m1 = 0.06947	797.11	1275.3
m1 = 0.09727	805.38	1277.7
m1 = 0.1285	814.46	1279.5

CC#N [acetonitrile]
[2]
Details	mass density [kg/m3]	viscosity [mPa·s]
–	776.85	0.341

CC#N [acetonitrile] + N#CCCCCC#N
[3], x1 = 1
Details	mass density [kg/m3]	viscosity [mPa·s]
–	776.85	0.341

N#CCCCCC#N [hexanedinitrile]
[2]
Details	mass density [kg/m3]	viscosity [mPa·s]
–	975.26	5.99

N#CCCCCC#N [hexanedinitrile] + CC#N
[3]
Details	mass density [kg/m3]	viscosity [mPa·s]
x2 = 0.5	892.51	1.61
x2 = 0.6	880	1.41
x2 = 0.7	870	1.057
x2 = 0.8	848.59	0.684
x2 = 0.9	818.58	0.506

Cc1ccc2ccc3ccc(C)nc3c2n1.Cc1ccc2ccc3ccc(C)nc3c2n1.[Cu+2].[O-][Cl+3]([O-])([O-])[O-].[O-][Cl+3]([O-])([O-])[O-] [bis-(2,9-dimethyl-1,10-phenanthroline) copper perchlorate] + CC#N
[1]
Details	mass density [kg/m3]	speed of sound [m/s]
m1 = 0.02474	792.91	1273.2
m1 = 0.03841	801.84	1274.5
m1 = 0.05937	815.69	1275.9
m1 = 0.08169	830.27	1277.3
m1 = 0.1218	857.14	1279.7

CC#N.CC#N.CC#N.CC#N.[Cu+].[O-][Cl+3]([O-])([O-])[O-] [tetraacetonitrile copper perchlorate] + CC#N
[1]
Details	mass density [kg/m3]	speed of sound [m/s]
m1 = 0.02538	787.25	1272.1
m1 = 0.03962	793.19	1273.7
m1 = 0.0589	801.28	1275
m1 = 0.08537	812.53	1276.7
m1 = 0.1254	828.76	1278.5

CCCC[N+](CCCC)(CCCC)CCCC.[O-][Cl+3]([O-])([O-])[O-] [tetrabutylammonium perchlorate] + CC#N
[1]
Details	mass density [kg/m3]	speed of sound [m/s]
m1 = 0.02616	783.32	1272.4
m1 = 0.04068	786.97	1273.2
m1 = 0.06312	792.62	1275.2
m1 = 0.09762	801.31	1276.8
m1 = 0.1502	814.61	1278.2

— the NIST ThermoML archive (doi:10.1021/je900915p)
